Results taken from paper PMC7734625, “Stabilization Strategies for Linear Minigastrin Analogues: Further Improvements via the Inclusion of Proline into the Peptide Sequence” (Journal of Medicinal Chemistry, 2020).
Read-outs that look alike come from different tables or passages of the source. Non-standard residues stand in square brackets, D forms with d. Residues, ends and D or L forms follow the SMILES beside them. *: point of attachment. DOTA = O=C(O)CN1CCN(CC(=O)O)CCN(CC(=O)*)CCN(CC(=O)O)CC1; 1Nal = N[C@@H](Cc1cccc2ccccc12)C(=O)O; NMeNle = CCCC[C@H](NC)C(=O)O

Experiments:
[1] = stability in rat kidney homogenate; assay type: in vitro ADME; settings: 120 min incubation, 37 °C
Procedure: (§1) In vitro stability studies characterizing the complex stability as well as the metabolic stability of the radiolabeled peptide analogues were carried out in PBS, fresh human serum, and rat liver and rat kidney homogenates. Organ homogenates were prepared from freshly dissected organs homogenized (IKA-Werke, Staufen, Germany) for 1 min at room temperature (RT) in a 20 mM 4-(2-hydroxyethyl)-1-piperazineethanesulfonic acid (HEPES) buffer at pH 7.3 (30% w/v). A fraction of 0.1 mL of radiolabeled peptide diluted in PBS/HEPES was added to 0.9 mL of medium reaching a final concentration of ∼500 pmol/mL and incubated at 37 °C for up to 120 min in rat organ homogenates (n = 2) and up to 24 h in human serum or PBS (n = 1). At each time point, 100 μL of sample was taken treated with 150 μL of ACN to precipitate proteins centrifuged (2000g, 2 min), diluted with water (1:1), and a fraction of 100 μL was injected to the analytical HPLC system. For serum and tissue homogenates, only the soluble phase extracted after centrifugation was analyzed, whereas the radioactivity lost in the pellet was not considered.

[2] = in vivo stability studies in BALB/c mice; settings: i.v.
Procedure: Metabolic studies evaluating the stability of the radioligands were carried out in 7- to 8-week-old female BALB/c mice. With the ^111In-labeled peptide derivatives, the studies were performed for the time point of 10 min p.i. (n = 2). With the ^177Lu-labeled peptide derivatives, additional studies were also carried out for the time point of 30 min and 60 min p.i. (n = 1 for each time point). To allow monitoring of the metabolites by analytical HPLC, the mice were injected with a higher amount of radioactivity (6–9 MBq indium-111, 30–45 MBq lutetium-177) corresponding to ∼1 nmol total peptide intravenously through a lateral tail vein. At different time points, the mice were euthanized by cervical dislocation and urine and a blood sample was collected. Liver and kidneys were excised and homogenized in 20 mM HEPES buffer pH 7.3. The amount of intact radiopeptide and the formation of metabolites was analyzed by analytical HPLC. Prior to injection into the HPLC system, all samples were treated as described for human serum and rat organ homogenate samples.

[3] = tested on: A431-CCK2R/A431-mock xenografts; assay: biodistribution in A431-CCK2R/A431-mock xenografted BALB/c nude mice; assay type: in vivo
Procedure: Biodistribution studies evaluating the tumor uptake of the radiolabeled peptides were performed in 7- to 9-week-old female athymic BALB/c nude mice (Charles River, Sulzfeld, Germany). For the induction of tumor xenografts, 150 μL of DMEM containing 2 × 10^6 A431-CCK2R and A431-mock cells were injected subcutaneously in the right and left flank of each mouse, respectively. And 10–14 days after injection, tumors reached a medium weight of ∼0.25 g. The mice were divided into groups of four and injected intravenously via a lateral tail vein with 0.2 MBq of ^111In-labeled compound (0.02 nmol) and 0.7 and 1.5 MBq of the ^177Lu-labeled compound (0.02 and 0.15 nmol). At 4 and 12 h p.i., the mice were sacrificed and the tumors and other tissues (blood, lung, heart, muscle, spleen, intestine, liver, kidneys, stomach, and pancreas) were removed, weighed, and their radioactivity measured in the γ counter together with the rest of the body. Initial biodistribution studies were performed with the three ^177Lu-labeled CCK2R-targeting ligands at an injected peptide amount of 20 pmol for the time point of 4 h p.i. From these studies, two peptide analogues were selected to further characterize the biodistribution profile also at a later time point of 12 h p.i. and at a higher injected peptide amount of 150 pmol. Additional animal studies were performed for the ^111In-labeled conjugates. Percentage of injected activity per gram tissue (%IA/g), tumor-to-organ activity ratios, as well as whole body activity were calculated for each sample and statistical analysis using independent two-population t-test (significance level p < 0.05) was performed using Origin software. For the comparison of more than two groups, data were analyzed using one-way analysis of variance (ANOVA) Holm–Bonferroni-adjusted post hoc analysis (significance level p < 0.05) using Microsoft Excel 2010 software (Microsoft Excel 2010, Microsoft Corporation, WA).

[4] = log D, octanol/PBS distribution; assay type: physicochemical; settings: 111In-labeled peptide
[5] = assay type: in vitro ADME; settings: 120 min, pH 7.3
Procedure: as §1

human CCK2R [6] = target: T1, human CCK2R (Homo sapiens, UniProt P32239); assay: competitive binding against [125I][3-iodo-Tyr12,Leu15]gastrin-I on A431-CCK2R cells; settings: unlabeled peptide, three independent assays, read-out: apparent IC50
T1 construct: expressed in transfected cells; host or cells: A431 human epidermoid carcinoma cells, stably transfected (pCR3.1), provided by Dr. Luigi Aloj
T1 sequence (P32239 1-447): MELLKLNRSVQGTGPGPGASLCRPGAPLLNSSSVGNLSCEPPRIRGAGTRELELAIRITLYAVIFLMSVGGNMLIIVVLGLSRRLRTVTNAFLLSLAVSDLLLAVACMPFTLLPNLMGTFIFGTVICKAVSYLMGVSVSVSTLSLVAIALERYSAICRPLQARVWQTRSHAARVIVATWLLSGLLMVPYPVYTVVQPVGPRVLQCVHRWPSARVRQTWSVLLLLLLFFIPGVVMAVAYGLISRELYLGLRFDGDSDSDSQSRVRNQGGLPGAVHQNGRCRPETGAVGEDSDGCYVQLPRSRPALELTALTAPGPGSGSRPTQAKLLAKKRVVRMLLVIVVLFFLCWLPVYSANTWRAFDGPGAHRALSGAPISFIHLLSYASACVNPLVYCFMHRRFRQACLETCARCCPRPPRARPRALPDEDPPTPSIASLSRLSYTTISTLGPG
Procedure: Binding assays were carried in 96-well filter plates (MultiScreenHTS-FB, Merck Group, Darmstadt, Germany) pretreated with 10 mM TRIS/139 mM NaCl buffer, pH 7.4 (TRIS-buffer) (2 × 250 μL) before 400 000 A431-CCK2R cells per well were added in 35 mM HEPES buffer, pH 7.4, containing 10 mM MgCl2, 14 μM bacitracin, and 0.5% bovine serum albumin (BSA).[46] Competition assays were performed three times in triplicate using increasing concentrations of competitor (0.003–1000 nM) and a constant amount of radioligand (∼40 000 cpm). After 1 h of incubation at room temperature (RT), the medium was removed and the filters were rapidly rinsed with ice-cold TRIS-buffer (2 × 200 μL), removed and counted in a γ-counter. Half-maximal inhibitory concentration (IC50) values were calculated following nonlinear regression with Origin software (MicroCal Origin 6.1, Northampton, MA). Even though incubation was performed in a hypoosmotic solution disturbing the integrity of the cell membrane, we cannot totally exclude that a limited extent of internalization affecting the binding equilibrium occurred. Therefore, the binding affinity measurements obtained from these studies are presented as “apparent IC50” rather than IC50.

human CCK2R [7] = target: T1, human CCK2R; assay: calcium mobilization assay on A431-CCK2R cells; assay type: cell-based; settings: mean ± SEM
Procedure: (§2) For calcium mobilization assays evaluating receptor activation, A431-CCK2R cells stably transfected with human CCK2R and AR42J cells expressing rat CCK2R were seeded in flat clear bottom black 96-well plates (Corning, Bagneaux-sur-Loing, France), previously coated with poly-D-ornithine (100 μg/mL, 1 h, 37 °C), at densities of 60 000 and 120 000 cells/well, respectively. After 24 h in culture in a 5% CO2 atmosphere, the cells were rinsed twice with modified HBSS buffer (20 mM HEPES, 0.5 mM MgCl2, 2.6 mM CaCl2, 7.7 mM Na2CO3, 1.4 mM MgSO4, 5.3 mM KCl, 138 mM NaCl, 0.1% BSA, 5.5 mM glucose, 2.5 mM probenecid, pH 7.4) (Sigma-Aldrich, Saint-Quentin-Fallavier, France) and loaded (40 min at 37 °C) with the calcium-sensitive dye Fluo-4 AM (ThermoFisher Scientific, Montigny-Le-Bretonneux, France) containing pluronic acid (20% in dimethyl sulfoxide (DMSO)). […] Briefly, after 18 s recording in basal conditions, 50 μL of graded concentrations of the investigated peptides was added to the incubation medium with a built-in eight-channel pipettor to assess activity. […] EC50 values were calculated with the Prism 4.0 software using a logistic equation. Results were expressed as mean ± standard error of the mean (SEM) for at least three independent experiments in triplicate.

rat CCK2R = target: T2, rat CCK2R (Rattus norvegicus, UniProt P30553); assay: calcium mobilization assay on AR42J cells; assay type: cell-based; settings: mean ± SEM
T2 construct: physiologically expressing the rat CCK2R; host or cells: AR42J rat pancreatic tumor cells
T2 sequence (P30553 1-452): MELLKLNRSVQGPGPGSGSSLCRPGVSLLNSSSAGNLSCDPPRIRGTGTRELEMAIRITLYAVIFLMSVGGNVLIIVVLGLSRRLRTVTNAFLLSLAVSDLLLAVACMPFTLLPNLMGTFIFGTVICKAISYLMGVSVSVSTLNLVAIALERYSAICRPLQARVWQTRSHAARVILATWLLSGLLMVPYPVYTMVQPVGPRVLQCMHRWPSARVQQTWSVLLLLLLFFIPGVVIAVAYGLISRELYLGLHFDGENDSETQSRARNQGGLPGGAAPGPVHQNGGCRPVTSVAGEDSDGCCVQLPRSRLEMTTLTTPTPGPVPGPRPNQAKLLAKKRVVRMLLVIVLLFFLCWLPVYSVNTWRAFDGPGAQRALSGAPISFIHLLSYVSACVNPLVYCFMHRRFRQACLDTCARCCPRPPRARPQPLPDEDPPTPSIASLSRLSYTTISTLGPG
Procedure: as §2

human CCK2R [8] = target: T1, human CCK2R; settings: A431-CCK2R cells, previous assays; cited from earlier work

Compound | intact radiopeptide in rat kidney homogenate [1] [%] | logD [4] | intact radiopeptide in rat liver homogenate [5] | IC50 (human CCK2R [6]) [nM] | EC50 (human CCK2R [7]) [nM] | EC50 (rat CCK2R) [nM] | also measured
CCCC[C@@H](C(=O)N[C@@H](CC(=O)O)C(=O)N[C@@H](Cc1cccc2ccccc12)C(N)=O)N(C)C(=O)[C@H](Cc1c[nH]c2ccccc12)NC(=O)CNC(=O)[C@H](Cc1ccc(O)cc1)NC(=O)[C@@H]1CCCN1C(=O)[C@@H](CCC(=O)O)NC(=O)CN1CCN(CC(=O)O)CCN(CC(=O)O)CCN(CC(=O)O)CC1 [[^111In]In-1] [metal not drawn] ({DOTA}-[dE]PYGW[NMeNle]D[1Nal]-NH2) | ~5 |  |  |  |  |  | intact radiopeptide in blood ([2]; 10 min p.i.): 80.0 ± 5.2%; intact radiopeptide in kidneys ([2]; 10 min p.i.): 23.4 ± 4.2%; intact radiopeptide in liver ([2]; 10 min p.i.): 76.0 ± 0.4%; intact radiopeptide in urine ([2]; 10 min p.i.): 21.8 ± 8.1%
CCCC[C@@H](C(=O)N[C@@H](CC(=O)O)C(=O)N[C@@H](Cc1cccc2ccccc12)C(N)=O)N(C)C(=O)[C@H](Cc1c[nH]c2ccccc12)NC(=O)CNC(=O)[C@@H]1CCCN1C(=O)[C@H](Cc1ccc(O)cc1)NC(=O)[C@@H](CCC(=O)O)NC(=O)CN1CCN(CC(=O)O)CCN(CC(=O)O)CCN(CC(=O)O)CC1 [compound 2] ({DOTA}-[dE]YPGW[NMeNle]D[1Nal]-NH2) |  | -1.75 ± 0.1 | 50-61% | 0.6 ± 0.3 | 14.2 ± 2.07 | 1.91 ± 0.49 | 
CCCC[C@@H](C(=O)N[C@@H](CC(=O)O)C(=O)N[C@@H](Cc1cccc2ccccc12)C(N)=O)N(C)C(=O)[C@H](Cc1c[nH]c2ccccc12)NC(=O)[C@@H]1CCCN1C(=O)[C@H](Cc1ccc(O)cc1)NC(=O)[C@H](C)NC(=O)[C@@H](CCC(=O)O)NC(=O)CN1CCN(CC(=O)O)CCN(CC(=O)O)CCN(CC(=O)O)CC1 [compound 3] ({DOTA}-[dE]AYPW[NMeNle]D[1Nal]-NH2) |  | -2.05 ± 0.08 |  | 1.3 ± 0.8 | 12.4 ± 3.83 | 1.27 ± 0.72 | 
DOTA-MG11: DOTA conjugate of the truncated MG analogue [DGlu^1,DesGlu^2–6]MG (MG11) (EAYGWMDF; Synthetic [DGlu1,desGlu2-6]minigastrin: residue 1 is D-Glu, N-terminal DOTA, C-terminal amide (Phe-NH2), Tyr not sulfated) |  |  |  |  |  |  | IC50 (human CCK2R [8]): 0.9 ± 0.3 nM

More lines, main results first:

intact radiopeptide in rat kidney homogenate [1] [%] | logD [4] | intact radiopeptide in rat liver homogenate [5] | IC50 (human CCK2R [6]) [nM] | EC50 (human CCK2R [7]) [nM] | EC50 (rat CCK2R) [nM] | Compound | also measured
~5 |  |  |  |  |  | CCCC[C@@H](C(=O)N[C@@H](CC(=O)O)C(=O)N[C@@H](Cc1cccc2ccccc12)C(N)=O)N(C)C(=O)[C@H](Cc1c[nH]c2ccccc12)NC(=O)CNC(=O)[C@H](Cc1ccc(O)cc1)NC(=O)[C@@H]1CCCN1C(=O)[C@@H](CCC(=O)O)NC(=O)CN1CCN(CC(=O)O)CCN(CC(=O)O)CCN(CC(=O)O)CC1 [[^177Lu]Lu-1] [metal not drawn] ({DOTA}-[dE]PYGW[NMeNle]D[1Nal]-NH2) | intact radiopeptide in blood ([2]; 60 min p.i., n = 1): 56.6%; intact radiopeptide in kidneys ([2]; 60 min p.i., n = 1): 8.1%; intact radiopeptide in liver ([2]; 60 min p.i., n = 1): 30.8%; intact radiopeptide in urine ([2]; 60 min p.i., n = 1): 23.0%; tumor uptake in A431-CCK2R xenografts ([3]; 20 pmol, 4 h p.i.): 35 % IA/g; uptake in A431-mock xenografts ([3]; 150 pmol, 4 h p.i.): 0.32 ± 0.14 % IA/g; uptake in blood ([3]; 150 pmol, 4 h p.i.): 0.07 ± 0.04 % IA/g; uptake in heart ([3]; 150 pmol, 4 h p.i.): 0.09 ± 0.03 % IA/g; uptake in spleen ([3]; 150 pmol, 4 h p.i.): 0.18 ± 0.05 % IA/g; tumor retention ([3]; A431-CCK2R xenografts, 12 h p.i. relative to 4 h p.i., 20 pmol): > 60%; reduction of tumor uptake in A431-CCK2R xenografts ([3]; injected peptide amount increased to 150 pmol vs 20 pmol, 4 h p.i.): about 50%
 | -2.03 ± 0.1 | 39-53% | 1.4 ± 0.6 | 12.3 ± 2.4 | 1.74 ± 0.81 | CCCC[C@@H](C(=O)N[C@@H](CC(=O)O)C(=O)N[C@@H](Cc1cccc2ccccc12)C(N)=O)N(C)C(=O)[C@H](Cc1c[nH]c2ccccc12)NC(=O)CNC(=O)[C@H](Cc1ccc(O)cc1)NC(=O)[C@@H]1CCCN1C(=O)[C@@H](CCC(=O)O)NC(=O)CN1CCN(CC(=O)O)CCN(CC(=O)O)CCN(CC(=O)O)CC1 [compound 1] ({DOTA}-[dE]PYGW[NMeNle]D[1Nal]-NH2) | 
